From ChEMBL document CHEMBL1201862, “PubChem BioAssay data set” (2004) come the findings set out here.

Among the test systems are T47D; SN12C; HCT-15; SK-OV-3; HCC 2998; SF-268; A549; 786-0; NCI/ADR-RES; OVCAR-3; UO-31; DU-145; MDA-MB-435; RXF 393; EKVX; M14; MOLT-4; OVCAR-5; MCF7.
What all share (assay): NCI tumour cell line growth inhibition, 48 h

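Interpolation was linear, between the two tested concentrations surrounding the appropriate level; five concentrations were tested over 48 hours in 96-well plates. GI50 is the concentration that inhibits growth by half.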 Activity calls are given as the source filed them. Rule as the data show it: active = GI50 up to about 1.1 µM and inactive = higher.

In the case of `ClCCCCCc1c2nc(c(CCCCCCl)c3ccc([nH]3)c(CCCCCCl)c3nc(c(CCCCCCl)c4ccc1[nH]4)C=C3)C=C2`, the GI50 was > 100 µM (inactive) in the test with T47D; > 100 µM (inactive) with SN12C; > 100 µM in the test on HCT-15; > 100 µM (inactive) with SK-OV-3; > 100 µM (inactive) in the test with HCC 2998; > 100 µM (inactive) in the test on SF-268. The GI50 was > 100 µM (inactive) in the test with A549; > 100 µM (inactive) with 786-0; > 100 µM (inactive) in the test on NCI/ADR-RES; > 100 µM (inactive) in the test with OVCAR-3; > 100 µM (inactive) with UO-31; 1 µM (active) with DU-145. The GI50 in the test with MDA-MB-435, in the test with RXF 393, in the test on EKVX, in the test with M14, in the test with MOLT-4 and with OVCAR-5 was > 100 µM (inactive) throughout. Besides, in the test with MCF7, the GI50 was > 100 µM (inactive).

For the compound `COc1c(C)c(C/C=C(\C)CCCCO[Si](c2ccccc2)(c2ccccc2)C(C)(C)C)c(OC)c(OC)c1OC`, the GI50 was > 83.9 µM (inactive) in the test with T47D; 27.7 µM (inactive) in the test with SN12C; > 46.5 µM with HCT-15; > 46.5 µM (inactive) in the test with SK-OV-3; 41.8 µM (inactive) in the test on HCC 2998; 65.5 µM (inactive) with SF-268. For the same compound, the GI50 is 21.4 µM (inactive) in the test with A549; 22.7 µM (inactive) in the test with 786-0; 27 µM (inactive) in the test with NCI/ADR-RES; > 46.5 µM (inactive) in the test with OVCAR-3; 9.27 µM (inactive) with UO-31; 27.9 µM (inactive) with DU-145. For the same compound, the GI50 in the test with MDA-MB-435 was > 46.5 µM (inactive); with RXF 393 it was > 100 µM (inactive); in the test with EKVX, > 31.6 µM (inactive); with M14 it was > 46.5 µM (inactive); in the test on MOLT-4, > 46.5 µM (inactive); in the test with OVCAR-5, > 46.5 µM (inactive). In addition, the GI50 with MCF7 is > 46.5 µM (inactive).

`CC(=O)O[C@H]1CC[C@H]2[C@@H]3CCC4C(C)=NNC(=O)C4[C@H]3CC[C@]12C` (some centres not stated): the GI50 in the test on T47D is > 100 µM (inactive); in the test on SN12C it was 95.5 µM (inactive); in the test on HCT-15 it was > 100 µM; in the test on SK-OV-3 it was > 95.1 µM (inactive); in the test on HCC 2998, > 100 µM (inactive); in the test with SF-268 it was 34 µM (inactive). For the same compound, the GI50 in the test on A549 was > 100 µM (inactive); with 786-0 it was 40.3 µM (inactive); in the test on NCI/ADR-RES, 45.4 µM (inactive); in the test with OVCAR-3 it was > 100 µM (inactive); in the test on UO-31 it was > 100 µM (inactive); in the test with DU-145, > 75.5 µM (inactive). The GI50 in the test on MDA-MB-435 is > 100 µM (inactive); in the test on RXF 393, 56.6 µM (inactive); with EKVX, 48.9 µM (inactive); with M14 it was > 100 µM (inactive); in the test on MOLT-4, > 100 µM (inactive); in the test on OVCAR-5, > 100 µM (inactive). For the same compound, the GI50 with MCF7 is > 100 µM (inactive).

Turning to `Cc1c(-c2ccccc2)[nH]c2ccc(Cl)cc2c1=O`, the GI50 with T47D was 19.4 µM (inactive); in the test on SN12C it was > 100 µM (inactive); in the test on HCT-15, 28.7 µM; in the test with SK-OV-3 it was 21.7 µM (inactive); with HCC 2998, 23.2 µM (inactive); with SF-268, 30.6 µM (inactive). In addition, the GI50 was 0.0232 µM (active) with A549; 29.8 µM (inactive) in the test with 786-0; 29.5 µM (inactive) in the test on NCI/ADR-RES; 17.1 µM (inactive) in the test with OVCAR-3; 0.252 µM (active) in the test on UO-31; 70 µM (inactive) in the test on DU-145. Moreover, the GI50 in the test on MDA-MB-435 was 16.4 µM (inactive); in the test on RXF 393, 20 µM (inactive); in the test with EKVX, 47.4 µM (inactive); with M14, 34.7 µM (inactive); in the test with MOLT-4 it was 22 µM (inactive); in the test on OVCAR-5, 61.9 µM (inactive). Besides, the GI50 in the test with MCF7 is 25.2 µM (inactive).

`Cn1c(=O)c2c(nc3n(CCCCl)c(=O)ccn23)n(C)c1=O`: the GI50 in the test with T47D is > 100 µM (inactive); in the test on SN12C, > 100 µM (inactive); in the test with HCT-15, > 100 µM; in the test on SK-OV-3, > 100 µM (inactive); with HCC 2998, > 100 µM (inactive); in the test with SF-268, > 100 µM (inactive). Besides, the GI50 in the test on A549, with 786-0, with NCI/ADR-RES, with OVCAR-3, in the test on UO-31 and in the test with DU-145 was > 100 µM (inactive) throughout. Moreover, the GI50 in the test on MDA-MB-435, in the test on RXF 393, with EKVX, in the test with M14, in the test with MOLT-4 and in the test with OVCAR-5 was > 100 µM (inactive) throughout. Besides, in the test on MCF7, the GI50 is > 100 µM (inactive).

On to `Cc1ccc(N2C(=O)C(=O)N(/N=C3\C(=O)Nc4ccccc43)C2=S)cc1`, for which the GI50 with T47D was 38.2 µM (inactive); in the test with SN12C it was > 100 µM (inactive); in the test with HCT-15, 39.8 µM; in the test with SK-OV-3, > 100 µM (inactive); in the test with HCC 2998 it was 93.5 µM (inactive); in the test with SF-268, 58.5 µM (inactive). The GI50 was > 100 µM (inactive) with A549; 46.6 µM (inactive) in the test on 786-0; 28.8 µM (inactive) in the test with NCI/ADR-RES; 64.4 µM (inactive) in the test with OVCAR-3; > 100 µM (inactive) in the test on UO-31; > 100 µM (inactive) in the test on DU-145. Besides, the GI50 with MDA-MB-435 was 36.6 µM (inactive); with RXF 393 it was 39.1 µM (inactive); in the test on EKVX it was > 100 µM (inactive); in the test with M14, > 100 µM (inactive); in the test on MOLT-4, 28.8 µM (inactive); with OVCAR-5 it was > 100 µM (inactive). Besides, in the test with MCF7, the GI50 is 43.2 µM (inactive).

For the compound `O=C1OC(c2ccccc2)=NC1c1ccccc1` (configuration not stated), the GI50 in the test with T47D is > 100 µM (inactive); in the test on SN12C it was > 100 µM (inactive); in the test on HCT-15, > 100 µM; in the test with SK-OV-3, > 100 µM (inactive); with HCC 2998, > 100 µM (inactive); in the test on SF-268, > 100 µM (inactive). The GI50 in the test with A549, in the test on 786-0, in the test on NCI/ADR-RES, in the test on OVCAR-3, with UO-31 and in the test with DU-145 was > 100 µM (inactive) in each case. In addition, the GI50 in the test with MDA-MB-435, in the test on RXF 393, with EKVX, in the test with M14, in the test with MOLT-4 and with OVCAR-5 was > 100 µM (inactive) throughout. Moreover, the GI50 in the test on MCF7 is > 100 µM (inactive).

As for `CNCCCn1c2ccccc2c2c3c(c(-c4ccsc4)cc21)C(=O)NC3=O`, the GI50 was 2.09 µM (inactive) in the test on T47D; 1.29 µM (inactive) in the test with SN12C; 1.51 µM with HCT-15; 1.19 µM (inactive) in the test with SK-OV-3; 2.67 µM (inactive) in the test on HCC 2998; 1.51 µM (inactive) with SF-268. Moreover, the GI50 was 1.17 µM (inactive) in the test on A549; 0.259 µM (active) in the test on 786-0; 0.71 µM (active) with NCI/ADR-RES; 1.15 µM (inactive) in the test on OVCAR-3; 0.286 µM (active) in the test with UO-31; 0.179 µM (active) in the test on DU-145. Also, the GI50 in the test with MDA-MB-435 is 1.12 µM (active); with RXF 393, 0.0112 µM (active); with EKVX, 1.85 µM (inactive); in the test on M14, 0.0408 µM (active); in the test on MOLT-4, 1.54 µM (inactive); in the test with OVCAR-5, 1.5 µM (inactive). The GI50 with MCF7 is 0.0984 µM (active).
